Values of other authors, collected in patent US5480905A, “Benzodioxane derivatives” (Chugai Seiyaku Kabushiki Kaisha, priority 1991, dated 1996).
“Also recorded” adds a separate entry of the source.

What was measured:
[1] = in vivo; cited from earlier work
[2] = test system: intracerebral serotonin 2 receptor; conditions: continuous administration; cited from earlier work

SMILES: O=C1c2ccccc2S(=O)(=O)N1CCCCN1CCN(c2ncccn2)CC1 [Ipsapirone]
- Antianxiety/antidepressant action (words, background) [1]: only weak antidepressant and antianxiety effects; also recorded: both antianxiety and antidepressant effects
- Side effects (words, background) [1]: either lower ultromotivity (probably due to the dopamine antagonistic action) or serotonin syndrome
- intracerebral serotonin 2 receptor (words, background) [2]: decrease in the intracerebral serotonin 2 receptor
